Measured values taken from patent US20130053430A1, “MODULATION OF CETP EXPRESSION” (Isis Pharmaceuticals, Inc., priority 2010, published 2013).
e = 2'-O-(2-methoxyethyl) (MOE); d = 2'-deoxy (DNA)

Columns and labels:
human CETP mRNA [1] = assay: Liver CETP mRNA in huCETP transgenic mice, normal chow (Example 5); format: in vivo; conditions: 50 mg/kg i.p. twice per week for 6 weeks, relative to PBS control
Method: Male huCETP transgenic mice were maintained on a 12-hour light/dark cycle and fed ad libitum normal Purina mouse chow. Animals were acclimated for at least 7 days in the research facility before initiation of the experiment. Antisense oligonucleotides (ASOs) were prepared in buffered saline (PBS) and sterilized by filtering through a 0.2 micron filter. Oligonucleotides were dissolved in 0.9% PBS for injection.
(§1) The mice were divided into five treatment groups. The first four groups received intraperitoneal injections of ISIS 349511, ISIS 349512, ISIS 349515, or ISIS 349517 at a dose of 50 mg/kg twice per week for 6 weeks. The fifth group received intraperitoneal injections of saline twice weekly for 6 weeks.
Twenty four hours after the final dose, the animals were sacrificed and liver tissue was isolated. Liver RNA was isolated for real-time PCR analysis of CETP. Two primer probe sets, hCETP (forward sequence […], designated herein as SEQ ID NO: 118; reverse sequence […], designated herein as SEQ ID NO: 119; probe sequence TGCGGACCGATGCCCCTGAX, designated herein as SEQ ID NO: 120) and hCETP2_LTS00182 (forward sequence […], designated herein as SEQ ID NO: 38; reverse sequence GGCTCACGCCTTTGCTGTT, designated herein as SEQ ID NO: 39: probe sequence CGGCTCGAGGTAGTGTTTACAGCCCTCX, designated herein as SEQ ID NO: 40), were used. These primer probe sets target the CETP mRNA transcript at different regions. As presented in Table 7, treatment with antisense oligonucleotides reduced CETP mRNA expression. The primer probe sets were used individually and collectively to measure CETP mRNA expression and gave similar results in all three cases. The RNA expression levels were normalized to murine Cyclophilin, a house-keeping gene, which is constitutively expressed. Cyclophilin levels were measured using the primer probe set described in Table 2. The results are expressed as percent inhibition of CETP mRNA, relative to the PBS control.

CETP protein = assay: Plasma CETP protein by ELISA in huCETP transgenic mice (Example 5); format: in vivo, human; conditions: normal chow, 50 mg/kg i.p. twice per week for 6 weeks, compared to PBS control
Method: as §1
Plasma levels of CETP protein were measured by ELISA (Alpco, N.H.). […] The results are expressed as percentage inhibition compared to the PBS control.

human CETP mRNA [2] = assay: Antisense inhibition of human CETP mRNA in primary hepatocytes from huCETP transgenic mice (Example 4); format: cell-based, mouse; conditions: cytofectin, ~24 hours
Outline: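 Primary hepatocytes from human CETP transgenic mice, 17,500 cells/well, transfected by cytofectin with 100 nM or 200 nM antisense oligonucleotide. After about 24 h, CETP mRNA quantified by real-time PCR, normalised to GAPDH, as percent inhibition versus untreated cells.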

human CETP mRNA [3] = assay: Dose-dependent antisense inhibition of human CETP in SW872 liposarcoma cells (Example 2); format: cell-based; conditions: Lipofectin, ~16 hours (Example 2)
Method: Cells were plated at a density of 50,000 cells per well in a 24-well plate and transfected using Lipofectin reagent with 50 nM, 150 nM, and 300 nM concentrations of each antisense oligonucleotide. After approximately 16 hours, RNA was isolated from the cells and CETP mRNA levels were measured by quantitative real-time PCR. CETP mRNA levels were normalized to total RNA content, as measured by the house-keeping gene, GAPDH mRNA levels. Results are presented in Table 4 as percent inhibition of CETP, relative to untreated control cells.

[4] = Body and organ weights of huCETP transgenic mice (Example 5); format: in vivo; conditions: 50 mg/kg i.p. twice per week
Method: as §1
The body weights of the mice were measured pre-dose and regularly during the treatment period. The body weights are presented in Table 10, and are expressed in grams.

[5] = Plasma cholesterol and triglyceride levels in huCETP transgenic mice (Example 5); format: in vivo; conditions: 50 mg/kg i.p. twice per week; for HDL / LDL / Total cholesterol / Triglycerides / VLDL: plasma
Method: as §1
Plasma cholesterol were extracted at weeks 3 and 6 by the method of Bligh and Dyer (Bligh, E. G. and Dyer, W. J. Can. J. Biochem. Physiol. 37: 911-917, 1959) and measured with an Olympus clinical analyzer (Hitachi Olympus AU400e, Melville, N.Y.). HDL, LDL and VLDL cholesterol were individually measured by HPLC. Triglyceride levels were measured with the use of a commercially available triglyceride kit (DCL Triglyceride Reagent; Diagnostic Chemicals Ltd.). The results are presented in Tables 13 and 14 and are expressed in mg/dL. There was a significant increase in HDL levels in mice treated with ISIS oligonucleotides.

human CETP mRNA [6] = assay: Antisense inhibition of human CETP mRNA in SW872 liposarcoma cells (Example 1); format: cell-based; conditions: 150 nM antisense oligonucleotide, lipofectin, ~24 hours, relative to untreated control cells
Outline: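 SW872 cells transfected (lipofectin) with 150 nM 5-10-5 MOE gapmer (phosphorothioate, 5-methylcytosine). After about 24 h, CETP mRNA measured by qRT-PCR, normalized to GAPDH; values are % inhibition versus untreated cells.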

[7] = Plasma glucose in huCETP transgenic mice (Example 5); format: in vivo; conditions: 50 mg/kg i.p. twice per week
Method: as §1
Plasma glucose values were determined using a Beckman Glucose Analyzer II (Beckman Coulter) by a glucose oxidase method (Lott, J. A. et al., Clin. Chem. 21: 1754-1760, 1975).

Substance	Percent inhibition of liver CETP mRNA expression, Combined primer probe sets (human CETP mRNA [1]) [%]	Percent inhibition of liver CETP mRNA expression, Primer probe set hCETP (human CETP mRNA [1]) [%]	Percent inhibition of liver CETP mRNA expression, Primer probe set hCETP2_LTS00182 (human CETP mRNA [1]) [%]	Percent inhibition of plasma CETP protein levels (CETP protein) [%]	Percent inhibition of human CETP mRNA (human CETP mRNA [2]; 100 nM) [%]	Percent inhibition of human CETP mRNA (human CETP mRNA [2]; 200 nM) [%]	Body weights ([4]; Week 0) [grams]	Body weights ([4]; Week 1) [grams]	Body weights ([4]; Week 2) [grams]	Body weights ([4]; Week 4) [grams]	Body weights ([4]; week 6) [grams]	Organ weights, Kidney ([4]; week 6) [mg]	Organ weights, Liver ([4]; week 6) [g]	Organ weights, Spleen ([4]; week 6) [mg]	Percentage of HDL in total cholesterol ([5]; Week 3) [%]	Percentage of HDL in total cholesterol ([5]; week 6) [%]	HDL ([5]; week 3) [mg/dL]	LDL ([5]; week 3) [mg/dL]	Total cholesterol ([5]; week 3) [mg/dL]	Triglycerides ([5]; week 3) [mg/dL]	other results
ISIS 349512: 5-10-5 MOE gapmer TTGCCTTCTGCTACAAGCCC (sugars from the 5' end e5 d10 e5, backbone and methylation of C not given here)	95	96	94	76	86	96	19	21	24	26	28	333.8	2.1	86.8	74	74	62	14	85	100	percent inhibition of CETP (human CETP mRNA [3]; 50 nM): 86%; percent inhibition of CETP (human CETP mRNA [3]; 150 nM): 98%; percent inhibition of CETP (human CETP mRNA [3]; 300 nM): 97%; HDL ([5]; week 6): 100 mg/dL; LDL ([5]; week 6): 31 mg/dL; Total cholesterol ([5]; week 6): 134 mg/dL; Triglycerides ([5]; week 6): 92 mg/dL; VLDL ([5]; week 6): 3 mg/dL; % inhibition (human CETP mRNA [6]): 92%; Glucose levels ([7]; week 3): 267 mg/dL; Glucose levels ([7]; week 6): 248 mg/dL
ISIS 349515: 5-10-5 MOE gapmer AACTTCCACCACGCTGGAGG (sugars from the 5' end e5 d10 e5, backbone and methylation of C not given here)	57	63	52	40	94	94	25	26	27	28	28	349.5	1.7	89.3	68	75	60	19	89	83	HDL ([5]; week 6): 66 mg/dL; LDL ([5]; week 6): 18 mg/dL; Total cholesterol ([5]; week 6): 87 mg/dL; Triglycerides ([5]; week 6): 115 mg/dL; VLDL ([5]; week 6): 4 mg/dL; % inhibition (human CETP mRNA [6]): 53%; Glucose levels ([7]; week 3): 275 mg/dL; Glucose levels ([7]; week 6): 237 mg/dL
